This note sets out measurements from US20200239530A1, “COMPOUNDS AND METHODS OF MODULATING PROTEIN DEGRADATION” (Vividion Therapeutics, Inc., priority 2017, published 2020).

Like-named read-outs stand apart in the source and are kept apart here.

Holding throughout (assay): Cysteine liganding, probe competition
Format in all cases: binding

For test [1], the target named is T1, UniProt Q96JY6 (Homo sapiens, UniProt Q96JY6).
T1 construct: 200 μL of lysate containing 5 mg/ml proteome was treated with 2 μL of 100× compound stock; endogenous in cells
T1 sequence (Q96JY6 1-352): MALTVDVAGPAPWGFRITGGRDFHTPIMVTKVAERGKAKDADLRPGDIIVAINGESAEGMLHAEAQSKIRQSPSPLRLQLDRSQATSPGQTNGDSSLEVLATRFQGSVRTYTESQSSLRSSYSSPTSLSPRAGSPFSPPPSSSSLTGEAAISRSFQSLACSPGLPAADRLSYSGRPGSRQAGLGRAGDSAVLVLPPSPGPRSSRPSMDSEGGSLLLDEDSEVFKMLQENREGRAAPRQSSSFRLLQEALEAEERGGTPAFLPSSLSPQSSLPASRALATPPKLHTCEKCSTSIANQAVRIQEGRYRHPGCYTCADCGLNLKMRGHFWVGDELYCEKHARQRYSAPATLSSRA
The text has this:
(§1) The following 96-well sample prep protocol was used for sample preparation.

Test [2] has as its target T2, UniProt Q9NX47 (Homo sapiens, UniProt Q9NX47).
T2 construct: Cells were resuspended in cold PBS on ice and sonicated with a probe sonicator to achieve lysis; endogenous in cells
From the text: as §1

Test [3] deals with T3, UniProt Q9BVG3 (Homo sapiens, UniProt Q9BVG3).
T3 construct: 200 μL of lysate containing 5 mg/ml proteome was treated with 2 μL of 100× compound stock; endogenous in cells
T3 sequence (Q9BVG3 whole entry, change not shown): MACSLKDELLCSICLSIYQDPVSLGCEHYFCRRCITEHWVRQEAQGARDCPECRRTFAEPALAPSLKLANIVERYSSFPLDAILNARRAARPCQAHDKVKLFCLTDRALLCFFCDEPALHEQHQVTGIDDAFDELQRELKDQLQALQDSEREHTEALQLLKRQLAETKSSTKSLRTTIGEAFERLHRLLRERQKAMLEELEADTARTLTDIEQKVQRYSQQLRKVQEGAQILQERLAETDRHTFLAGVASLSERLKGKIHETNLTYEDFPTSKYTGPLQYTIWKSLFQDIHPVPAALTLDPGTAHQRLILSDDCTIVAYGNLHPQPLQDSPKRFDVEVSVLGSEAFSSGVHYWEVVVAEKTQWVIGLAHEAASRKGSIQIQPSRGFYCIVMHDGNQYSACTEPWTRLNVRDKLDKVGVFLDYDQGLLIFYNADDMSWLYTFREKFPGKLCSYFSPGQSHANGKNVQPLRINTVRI
From the text: as §1

The target of test [4] is T4, UniProt Q7Z6J0 (Homo sapiens, UniProt Q7Z6J0).
T4 construct: 200 μL of lysate containing 5 mg/ml proteome was treated with 2 μL of 100× compound stock; endogenous in cells
T4 sequence (Q7Z6J0 1-888): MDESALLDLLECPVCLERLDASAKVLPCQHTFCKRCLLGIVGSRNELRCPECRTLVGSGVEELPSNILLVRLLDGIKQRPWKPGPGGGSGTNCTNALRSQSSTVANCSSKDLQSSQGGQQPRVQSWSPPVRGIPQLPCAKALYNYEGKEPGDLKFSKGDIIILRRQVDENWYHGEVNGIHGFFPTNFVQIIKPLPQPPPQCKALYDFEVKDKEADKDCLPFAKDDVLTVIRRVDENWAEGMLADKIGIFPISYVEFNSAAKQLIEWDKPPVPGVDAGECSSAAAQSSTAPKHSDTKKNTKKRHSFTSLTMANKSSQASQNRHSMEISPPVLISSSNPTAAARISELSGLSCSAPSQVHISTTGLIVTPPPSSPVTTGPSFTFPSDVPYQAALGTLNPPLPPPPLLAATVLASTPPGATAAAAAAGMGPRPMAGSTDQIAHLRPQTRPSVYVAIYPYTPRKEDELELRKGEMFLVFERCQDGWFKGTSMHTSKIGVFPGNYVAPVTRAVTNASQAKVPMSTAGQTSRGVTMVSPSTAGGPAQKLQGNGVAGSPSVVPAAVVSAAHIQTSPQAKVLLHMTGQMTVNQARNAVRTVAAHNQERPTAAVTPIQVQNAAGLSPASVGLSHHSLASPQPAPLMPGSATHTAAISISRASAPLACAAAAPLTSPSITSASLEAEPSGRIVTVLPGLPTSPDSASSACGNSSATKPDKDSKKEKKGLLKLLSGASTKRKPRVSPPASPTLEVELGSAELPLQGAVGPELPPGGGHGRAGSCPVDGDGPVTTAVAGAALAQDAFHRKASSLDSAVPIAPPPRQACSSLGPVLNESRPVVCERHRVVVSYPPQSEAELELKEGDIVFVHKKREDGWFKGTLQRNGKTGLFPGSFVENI
The conditions noted are these: for inhibition at 100 µM: read-out: percent_inhibition.
From the text: as §1

Test [5] has as its target T5, UniProt Q96DX4 (Homo sapiens, UniProt Q96DX4).
T5 construct: 200 μL of lysate containing 5 mg/ml proteome was treated with 2 μL of 100× compound stock; endogenous in cells
The conditions noted are these: read-out: percent_inhibition.
From the text: as §1

For test [6], the target named is T6, UniProt Q495X7 (Homo sapiens, UniProt Q495X7).
T6 construct: 200 μL of lysate containing 5 mg/ml proteome was treated with 2 μL of 100× compound stock; endogenous in cells
T6 sequence (Q495X7 1-471): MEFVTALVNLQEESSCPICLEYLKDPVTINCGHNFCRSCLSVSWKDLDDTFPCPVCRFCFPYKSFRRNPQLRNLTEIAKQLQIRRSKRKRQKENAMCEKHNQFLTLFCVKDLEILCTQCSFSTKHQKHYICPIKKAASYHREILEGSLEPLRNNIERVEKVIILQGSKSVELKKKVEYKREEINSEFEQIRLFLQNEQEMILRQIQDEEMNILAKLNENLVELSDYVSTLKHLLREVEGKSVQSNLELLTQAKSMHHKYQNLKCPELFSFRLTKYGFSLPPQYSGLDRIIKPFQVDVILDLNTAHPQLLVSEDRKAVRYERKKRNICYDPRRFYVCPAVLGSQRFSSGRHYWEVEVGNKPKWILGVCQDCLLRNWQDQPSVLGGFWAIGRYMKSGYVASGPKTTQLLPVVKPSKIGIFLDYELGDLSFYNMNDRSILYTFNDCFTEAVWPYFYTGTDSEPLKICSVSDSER
From the text: as §1

The target in test [7] is T7, UniProt Q86UD3 (Homo sapiens, UniProt Q86UD3).
T7 construct: Cells were resuspended in cold PBS on ice and sonicated with a probe sonicator to achieve lysis; endogenous in cells
T7 sequence (Q86UD3 1-253): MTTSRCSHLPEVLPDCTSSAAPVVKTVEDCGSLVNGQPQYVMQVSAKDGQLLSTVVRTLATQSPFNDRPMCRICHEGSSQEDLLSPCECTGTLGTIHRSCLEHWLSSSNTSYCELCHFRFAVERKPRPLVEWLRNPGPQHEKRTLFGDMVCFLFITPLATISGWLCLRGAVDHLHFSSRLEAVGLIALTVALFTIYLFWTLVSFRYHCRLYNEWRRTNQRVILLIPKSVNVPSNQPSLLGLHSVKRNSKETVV
From the text: as §1

Test [8] has as its target T8, UniProt O94972 (Homo sapiens, UniProt O94972).
T8 construct: 200 μL of lysate containing 5 mg/ml proteome was treated with 2 μL of 100× compound stock; endogenous in cells
From the text: as §1

For test [9], the target named is T9, UniProt Q9H992 (Homo sapiens, UniProt Q9H992).
T9 construct: Cells were resuspended in cold PBS on ice and sonicated with a probe sonicator to achieve lysis; endogenous in cells
T9 sequence (Q9H992 whole entry, change not shown): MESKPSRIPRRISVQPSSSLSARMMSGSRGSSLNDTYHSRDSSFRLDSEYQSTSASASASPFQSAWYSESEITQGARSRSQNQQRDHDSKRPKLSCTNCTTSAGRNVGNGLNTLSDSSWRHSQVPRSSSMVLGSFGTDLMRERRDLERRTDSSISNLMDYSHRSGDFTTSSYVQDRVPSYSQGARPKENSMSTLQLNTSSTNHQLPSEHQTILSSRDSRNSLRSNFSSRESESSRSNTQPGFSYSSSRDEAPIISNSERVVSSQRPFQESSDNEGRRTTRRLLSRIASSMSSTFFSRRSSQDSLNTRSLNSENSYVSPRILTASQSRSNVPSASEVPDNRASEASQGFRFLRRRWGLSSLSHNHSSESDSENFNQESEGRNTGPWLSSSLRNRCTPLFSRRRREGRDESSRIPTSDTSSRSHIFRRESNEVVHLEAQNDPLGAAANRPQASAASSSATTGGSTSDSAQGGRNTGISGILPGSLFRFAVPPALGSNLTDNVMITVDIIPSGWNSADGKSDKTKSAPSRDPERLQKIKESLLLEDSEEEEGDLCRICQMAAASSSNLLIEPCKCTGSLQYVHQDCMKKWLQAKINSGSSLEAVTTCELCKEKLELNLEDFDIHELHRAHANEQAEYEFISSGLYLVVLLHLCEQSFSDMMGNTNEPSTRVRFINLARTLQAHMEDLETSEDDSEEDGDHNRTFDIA
From the text: as §1

For test [10], the target named is T10, UniProt Q9HBE1 (Homo sapiens, UniProt Q9HBE1).
T10 construct: Cells were resuspended in cold PBS on ice and sonicated with a probe sonicator to achieve lysis; endogenous in cells
T10 sequence (Q9HBE1 whole entry, change not shown): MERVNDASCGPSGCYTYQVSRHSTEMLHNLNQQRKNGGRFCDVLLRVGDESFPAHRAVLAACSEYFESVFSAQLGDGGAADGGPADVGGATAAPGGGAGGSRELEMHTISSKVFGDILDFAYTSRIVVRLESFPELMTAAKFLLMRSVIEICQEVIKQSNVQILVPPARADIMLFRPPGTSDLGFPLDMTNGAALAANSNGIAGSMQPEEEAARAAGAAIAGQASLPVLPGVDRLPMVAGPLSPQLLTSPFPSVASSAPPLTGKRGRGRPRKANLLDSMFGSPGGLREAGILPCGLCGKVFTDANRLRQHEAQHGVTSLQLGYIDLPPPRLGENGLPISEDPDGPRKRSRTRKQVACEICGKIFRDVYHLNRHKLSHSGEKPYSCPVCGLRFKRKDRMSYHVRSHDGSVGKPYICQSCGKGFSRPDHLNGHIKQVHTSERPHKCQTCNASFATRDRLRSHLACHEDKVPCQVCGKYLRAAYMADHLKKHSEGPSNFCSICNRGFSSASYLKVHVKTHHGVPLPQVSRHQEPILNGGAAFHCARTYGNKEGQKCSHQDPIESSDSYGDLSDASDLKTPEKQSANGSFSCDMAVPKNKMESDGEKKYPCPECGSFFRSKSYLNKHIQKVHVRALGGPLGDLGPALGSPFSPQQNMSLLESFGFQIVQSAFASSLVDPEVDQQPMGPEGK
From the text: as §1

Test [11] addresses T11, UniProt P78317 (Homo sapiens, UniProt P78317).
T11 construct: 200 μL of lysate containing 5 mg/ml proteome was treated with 2 μL of 100× compound stock; endogenous in cells
From the text: as §1

Setting [12] is: 100 uM, read-out: KB02_100 uM_percent_inhibition.
The mark [13] stands for this setting: read-out: KB05_100 uM_percent_inhibition.

T8 sequence (O94972 whole entry, change not shown): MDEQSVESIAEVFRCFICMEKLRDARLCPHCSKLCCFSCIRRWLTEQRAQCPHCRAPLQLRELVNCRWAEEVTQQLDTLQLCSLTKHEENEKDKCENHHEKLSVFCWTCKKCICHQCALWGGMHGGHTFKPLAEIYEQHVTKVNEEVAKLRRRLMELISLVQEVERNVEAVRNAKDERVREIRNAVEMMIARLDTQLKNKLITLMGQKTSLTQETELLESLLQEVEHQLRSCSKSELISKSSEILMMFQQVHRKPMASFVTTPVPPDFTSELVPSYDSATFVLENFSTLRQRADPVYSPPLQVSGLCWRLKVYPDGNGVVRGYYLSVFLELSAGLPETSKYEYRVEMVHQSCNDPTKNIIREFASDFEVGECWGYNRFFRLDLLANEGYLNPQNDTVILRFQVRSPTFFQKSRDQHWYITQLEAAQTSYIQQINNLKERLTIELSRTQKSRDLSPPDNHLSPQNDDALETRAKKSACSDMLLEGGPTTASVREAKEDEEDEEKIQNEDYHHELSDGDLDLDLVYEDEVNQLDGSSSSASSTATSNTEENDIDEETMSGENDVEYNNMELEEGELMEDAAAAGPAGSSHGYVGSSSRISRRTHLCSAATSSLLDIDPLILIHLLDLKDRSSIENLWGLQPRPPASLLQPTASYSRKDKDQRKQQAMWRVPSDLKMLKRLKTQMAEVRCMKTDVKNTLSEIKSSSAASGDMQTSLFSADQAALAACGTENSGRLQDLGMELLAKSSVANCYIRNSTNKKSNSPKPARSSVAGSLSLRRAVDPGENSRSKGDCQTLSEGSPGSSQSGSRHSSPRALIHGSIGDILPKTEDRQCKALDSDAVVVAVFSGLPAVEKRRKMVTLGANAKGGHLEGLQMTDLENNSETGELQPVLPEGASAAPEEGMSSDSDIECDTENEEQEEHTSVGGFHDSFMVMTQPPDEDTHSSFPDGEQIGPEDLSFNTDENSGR
T11 sequence (P78317 whole entry, change not shown): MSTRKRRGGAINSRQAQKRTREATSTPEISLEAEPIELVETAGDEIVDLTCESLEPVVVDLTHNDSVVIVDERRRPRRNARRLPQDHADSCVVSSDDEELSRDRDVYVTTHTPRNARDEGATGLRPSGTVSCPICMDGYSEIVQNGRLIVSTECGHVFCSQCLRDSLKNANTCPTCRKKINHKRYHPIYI
T2 sequence (Q9NX47 whole entry, change not shown): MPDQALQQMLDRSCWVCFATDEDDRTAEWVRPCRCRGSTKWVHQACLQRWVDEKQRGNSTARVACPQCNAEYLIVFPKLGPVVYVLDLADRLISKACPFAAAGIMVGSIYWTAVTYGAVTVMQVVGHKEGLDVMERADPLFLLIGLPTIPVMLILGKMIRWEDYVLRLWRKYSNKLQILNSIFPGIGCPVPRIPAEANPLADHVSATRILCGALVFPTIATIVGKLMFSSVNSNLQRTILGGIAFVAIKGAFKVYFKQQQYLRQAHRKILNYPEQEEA
T5 sequence (Q96DX4 17-576, change not shown): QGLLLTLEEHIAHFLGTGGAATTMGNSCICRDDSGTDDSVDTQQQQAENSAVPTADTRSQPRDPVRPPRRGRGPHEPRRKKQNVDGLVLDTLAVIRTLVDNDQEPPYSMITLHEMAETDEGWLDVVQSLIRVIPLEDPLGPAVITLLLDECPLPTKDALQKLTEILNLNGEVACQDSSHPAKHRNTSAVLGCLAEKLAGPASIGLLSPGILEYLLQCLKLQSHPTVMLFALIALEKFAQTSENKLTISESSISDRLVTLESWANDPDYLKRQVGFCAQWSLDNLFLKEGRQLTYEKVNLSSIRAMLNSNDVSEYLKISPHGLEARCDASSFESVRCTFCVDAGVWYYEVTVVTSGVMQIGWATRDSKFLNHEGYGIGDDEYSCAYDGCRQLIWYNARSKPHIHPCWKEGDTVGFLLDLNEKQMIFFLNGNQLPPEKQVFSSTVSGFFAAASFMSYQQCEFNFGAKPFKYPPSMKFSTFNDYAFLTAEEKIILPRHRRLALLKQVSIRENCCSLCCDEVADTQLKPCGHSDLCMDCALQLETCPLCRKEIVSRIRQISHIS

For `COc1ccc2c(c1)CCCN2C(=O)CCl` [KB02], the inhibition at 100 µM worked out at 23% in test [1] (read-out: KB02_100 uM_percent_inhibition); 7% in test [2] (read-out: percent inhibition); 1% in [3] (setting [12]); 42% in [4]; 15% in test [6] (setting [12]); 34% in test [7] (100 uM, read-out: percent inhibition). The inhibition at 500 µM in [5] was determined as 17%; in test [6] (500 uM, read-out: KB02_500 uM_percent_inhibition), 44%; in [7] (500 uM, read-out: percent inhibition) it was 77%.
With `C=CC(=O)N(c1ccccc1)c1ccc(Br)cc1` [KB05], the inhibition at 100 µM worked out at 33% in test [1] (setting [13]); 18% in test [8] (setting [13]); 21% in test [9] (read-out: percent inhibition); 45% in test [10] (setting [13]); 3% in test [4]. In addition, the inhibition at 500 µM in test [1] (500 uM, read-out: KB05_500 uM_percent_inhibition) turned out to be 36%; in [11] (500 uM, read-out: percent_inhibition), 24%; in [5], 24%. In test [4] (100 uM), this compound had a percent_inhibition of 4%.
Consider `O=C(CCl)Nc1cc(C(F)(F)F)cc(C(F)(F)F)c1` [KBO3], for which the percent inhibition in test [2] (100 uM) was 30%; in test [9] (100 uM), 82%; in [7] (500 uM) it was 66%. Moreover, the “KB03_100 uM_percent_inhibition” value was 36% in test [8] (100 uM), 72% in test [10] (100 uM) and 27% in test [6] (100 uM). The entries for the “KB03_500 uM_percent_inhibition” value in [3] (500 uM) and in test [6] (500 uM) were 59% and 43%, respectively. Besides, the percent_inhibition in test [11] (100 uM) is 16%.
